Read-outs that look alike come from different tables or passages of the source.
Tests used:
Conditions in all cases: 10 mM MgCl2, 100 mM Tris pH 8.0, 25 °C
[1] = test system: PcIBMS1
[2] = test system: PcIBMS1; experiment: DTNB end-point spectrophotometric assay; format: biochemical, Pogostemon cablin
[3] = test system: PcIPMS1; experiment: DTNB end-point spectrophotometric assay; format: biochemical, Pogostemon cablin
[4] = test system: PcIPMS1

CC(C)C(=O)C(=O)O [2-oxoisovalerate]
Km ([1]; 1 mM acetyl-CoA): 444 ± 44.4 µM | Km ([2]; 1 mM acetyl-CoA): 1300 ± 128 µM | Km ([3]; 1 mM acetyl-CoA): 288 ± 8.2 µM | Km ([4]; 1 mM acetyl-CoA): 622 ± 58.3 µM

CC(C)CC(=O)C(=O)O [4-methyl-2-oxovalerate]
Km ([1]; 1 mM acetyl-CoA): 95 ± 17.9 µM | Km ([2]; 1 mM acetyl-CoA): 140 ± 39.4 µM

CC(=O)SCCNC(=O)CCNC(=O)[C@H](O)C(C)(C)COP(=O)(O)OP(=O)(O)OC[C@H]1O[C@@H](n2cnc3c(N)ncnc32)[C@H](O)[C@@H]1OP(=O)(O)O [acetyl-CoA]
Km ([1]; 2 mM 4-methyl-2-oxovalerate): 132 ± 6.5 µM | Km ([2]; 2 mM 4-methyl-2-oxovalerate): 145 ± 21.2 µM | Km ([3]; 2 mM 2-oxoisovalerate): 48.1 ± 2.8 µM | Km ([4]; 2 mM 2-oxoisovalerate): 22.7 ± 1.9 µM

Reference: paper doi:10.1101/2021.09.28.462264v1 (biorxiv, 2021)
